Data reported in patent US8865675B2, “Compositions and methods for silencing apolipoprotein B” (Protiva Biotherapeutics, Inc., priority 2010, dated 2014).

Experiments:
[1] = test system: liver ApoB mRNA; assay: Liver ApoB mRNA knockdown after IV SNALP administration, branched DNA (QuantiGene) assay relative to GAPDH; format: in vivo, Balb/c mice; details: for KD50 compared to SNALP containing the C2K benchmark cationic lipid: 48 h (FIG. 2, FIG. 3); for ApoB silencing activity compared to SNALP containing C2K when administered at the same dose: 0.033 or 0.05 mg/kg IV, 48 h (Table 6); for ApoB knockdown relative to PBS control (%): 1:57 SNALP with ApoB-10164 siRNA, ApoB:GAPD, 48 h, n = 3
Protocol: (§1) For dose response studies, SNALP formulations were administered by IV injection at 0.01 mg/kg, 0.033 mg/kg, or 0.1 mg/kg into female Balb/c mice (n=3 per group). Liver ApoB mRNA levels were evaluated at 48 hours after SNALP administration by a branched DNA assay (QuantiGene assay) to assess ApoB mRNA relative to the housekeeping gene GAPDH.
as §1, with “Each” for “For dose response studies,”, “formulation (6:1 L:D) was” for “formulations were”, “intravenous (IV)” for “IV”, “at” for “at 0.01 mg/kg, 0.033 mg/kg, or”
SNALP formulations were administered by IV injection at 0.05 mg/kg into female Balb/c mice (n=3 per group). Liver ApoB mRNA levels were evaluated at 48 hours after SNALP administration by a branched DNA assay (QuantiGene assay) to assess ApoB mRNA relative to the housekeeping gene GAPDH.
For these dose response studies, SNALP formulations were administered by IV injection at 0.05, 0.10, or 0.25 mg/kg for DLinDMA and at 0.01, 0.025, or 0.05 mg/kg for C2K or MC3 into female Balb/c mice (n=4 per group). Liver ApoB mRNA levels were evaluated at 48 hours after SNALP administration (Error bars=SD).
SNALP formulations were administered by IV injection at 0.033 mg/kg or at 0.05 mg/kg into Balb/c mice (n=3 per group). Liver ApoB mRNA levels were evaluated at 48 hours after SNALP administration by a branched DNA assay (QuantiGene assay) to assess ApoB mRNA relative to the housekeeping gene GAPDH.

[2] = Tolerability assessments of SNALP in mice (liver enzymes, body weight, neutrophil to lymphocyte ratio etc.); format: in vivo
[3] = 1:57 SNALP, 0.01, 0.033 or 0.1 mg/kg IV, female Balb/c mice, 48 h (FIG. 1, FIG. 3)
[4] = 1:57 SNALP, 0.01, 0.033 or 0.1 mg/kg IV, female Balb/c mice

CCCCC/C=C\C/C=C\CCCCCCCCC(CCCCCCCC/C=C\C/C=C\CCCCC)OC(=O)CCCN(C)C [Compound 1, (6Z,9Z,28Z,31Z)-heptatriaconta-6,9,28,31-tetraen-19-yl 4-(dimethylamino)butanoate]
potency versus the corresponding DLinDMA or C2K SNALP formulations, comparison of KD50 values ([1]; 1:57 SNALP containing siApoB-8 or siApoB-10, female Balb/c mice, 48 h (FIG. 6)): more potent
ApoB silencing activity compared to SNALP containing the C2K benchmark cationic lipid [1, 3]: improved ApoB silencing activity
KD50 compared to SNALP containing the C2K benchmark cationic lipid [1, 4]: substantially lower KD50 values
ApoB silencing activity compared to SNALP containing C2K when administered at the same dose ([1]; 1:57 SNALP, Balb/c mice): unexpectedly improved ApoB silencing activity
potency in silencing ApoB expression in vivo compared to SNALP containing DLin-C2K-DMA (C2K) or DLinDMA ([1]; 1:57 lipid particle): unexpectedly more potent

CC/C=C\C/C=C\C/C=C\CCCCCCCCC(CCCCCCCC/C=C\C/C=C\C/C=C\CC)OC(=O)CCCN(C)C [Compound 4, LenMC3]
ApoB silencing activity compared to SNALP containing the C2K benchmark cationic lipid [1, 3]: improved ApoB silencing activity
KD50 compared to SNALP containing the C2K benchmark cationic lipid [1, 4]: substantially lower KD50 values
ApoB silencing activity compared to SNALP containing C2K when administered at the same dose ([1]; 1:57 SNALP, Balb/c mice): unexpectedly improved ApoB silencing activity

CCCCC/C=C\C/C=C\C/C=C\CCCCCC(CCCCC/C=C\C/C=C\C/C=C\CCCCC)OC(=O)CCCN(C)C [Compound 8, γ-LenMC3]
ApoB silencing activity compared to SNALP containing the C2K benchmark cationic lipid [1, 3]: improved ApoB silencing activity
KD50 compared to SNALP containing the C2K benchmark cationic lipid [1, 4]: substantially lower KD50 values
ApoB silencing activity compared to SNALP containing C2K when administered at the same dose ([1]; 1:57 SNALP, Balb/c mice): unexpectedly improved ApoB silencing activity

CCCCC/C=C\C/C=C\CCCCCCCCC(CCCCCCCC/C=C\C/C=C\CCCCC)OC(=O)N(C)CCCN(C)C [Compound 10, MC3MC]
ApoB knockdown relative to PBS control (%) ([1]; 0.033 mg/kg IV, Balb/c mice): −50%

CCCCC/C=C\C/C=C\CCCCCCCCC(CCCCCCCC/C=C\C/C=C\CCCCC)OCCCN(C)C [Compound 13, 3-((6Z,9Z,28Z,31Z)-heptatriaconta-6,9,28,31-tetraen-19-yloxy)-N,N-dimethylpropan-1-amine]
ApoB silencing activity compared to SNALP containing the C2K benchmark cationic lipid ([1]; 1:57 SNALP, 0.05 mg/kg IV, female Balb/c mice, 48 h (FIG. 5)): unexpectedly improved ApoB silencing activity
ApoB silencing activity compared to SNALP containing C2K when administered at the same dose ([1]; 1:57 SNALP, Balb/c mice): unexpectedly improved ApoB silencing activity

CCCCC/C=C\C/C=C\CCCCCCCCC(CCCCCCCC/C=C\C/C=C\CCCCC)OCCCCN(C)C [Compound 15, MC4 Ether]
ApoB silencing activity compared to SNALP containing C2K when administered at the same dose ([1]; 1:57 SNALP, Balb/c mice): unexpectedly improved ApoB silencing activity

CCCCC/C=C\C/C=C\CCCCCCCCCC(CCCCCCC/C=C\C/C=C\CCCCC)OC(=O)N(CCCCCC)CCCN(C)C (stereo not shown) [Compound 27, (6Z,9Z,28Z,31Z)-heptatriaconta-6,9,28,31-tetraen-18-yl 3-(dimethylamino)propyl(hexyl)carbamate]
ApoB silencing activity compared to SNALP containing C2K when administered at the same dose ([1]; 1:57 SNALP, Balb/c mice): unexpectedly improved ApoB silencing activity

CC/C=C\CCCN(CCCN(C)C)C(=O)OC(CCCCCCC/C=C\C/C=C\CCCCC)CCCCCCCCC/C=C\C/C=C\CCCCC (stereo not shown) [Compound 28, (6Z,9Z,28Z,31Z)-heptatriaconta-6,9,28,31-tetraen-18-yl 3-(dimethylamino)propyl((Z)-hept-4-enyl)carbamate]
ApoB silencing activity compared to SNALP containing C2K when administered at the same dose ([1]; 1:57 SNALP, Balb/c mice): unexpectedly improved ApoB silencing activity

CC/C=C\C/C=C\C/C=C\CCCCCCCCC(CCCCCCCC/C=C\C/C=C\C/C=C\CC)OCCCCN(C)C [Compound 35, 4-((3Z,6Z,9Z,28Z,31Z,34Z)-heptatriaconta-3,6,9,28,31,34-hexaen-19-yloxy)-N,N-dimethylbutan-1-amine]
ApoB silencing activity compared to SNALP containing C2K when administered at the same dose ([1]; 1:57 SNALP, Balb/c mice): unexpectedly improved ApoB silencing activity

CCC1CC1CC1CC1CC1CC1CCCCCCCCC1(CCCCCCCCC2CC2CC2CC2CC2CC2CC)OCC(CCN(C)C)O1 (stereo not shown) [Compound 46, CP-DLen-C2K-DMA]
body weight loss compared to mice administered SNALP containing C2K ([2]; mouse, in vivo): less body weight loss
increase in liver enzyme levels compared to mice administered SNALP containing C2K ([2]; mouse, in vivo): lower increase in liver enzyme levels
neutrophil to lymphocyte ratio compared to mice administered SNALP containing C2K ([2]; mouse, in vivo): more favorable neutrophil to lymphocyte ratio
toxicity profile compared to SNALP containing C2K ([2]; various tolerability assessments in vivo): unexpectedly more favorable toxicity profile
potency in silencing ApoB mRNA expression ([1]; 1:57 SNALP, 0.01, 0.033 or 0.1 mg/kg IV, female Balb/c mice, 48 h (FIG. 3)): considerable potency

(6Z,9Z,28Z,31Z)-heptatriaconta-6,9,28,31-tetraen-18-yl 2-(dimethylamino)ethyl(ethyl)carbamate [Compound 29]
ApoB knockdown relative to PBS control (%) ([1]; 0.05 mg/kg IV, Balb/c mice): −59%

siApoB-10: APOB siRNA of sense strand SEQ ID NO: 4 and antisense strand SEQ ID NO: 11 with 2′OMe nucleotides (sense AGNGNCANCACACNNAANACC; antisense UAUUCAGUGUGAUGACACUUG; 2'OMe nucleotides, chemistry not fully specified)
silencing activity of more highly 2′OMe-modified APOB siRNA relative to siApoB-8 ([1]; modifications increased from 7 in siApoB-8 to 13 in siApoB-10, 1:57 SNALP, Balb/c mice, 48 h (FIG. 6)): does not decrease activity
